Literature values as cited in patent US11040008B2, “Pharmaceutical compositions of meloxicam” (Slayback Pharma LLC, priority 2018, dated 2021).

Experiments:
[1] = oral, fasted steady state conditions

Cc1cnc(NC(=O)C2=C(O)c3ccccc3S(=O)(=O)N2C)s1 [meloxicam, 4-hydroxy-2-methyl-N-(5-methyl-2-thiazolyl)-2H-1,2-benzothiazine-3-carboxamide-1,1-dioxide]
Time of second meloxicam concentration peak post-dose [1]: twelve to fourteen
Solubility in water: practically insoluble in water
